Experimental findings from paper PMC4982760, “Small-molecule inhibitors identify the RAD52-ssDNA interaction as critical for recovery from replication stress and for survival of BRCA2 deficient cells” (eLife, 2016) are described below.

Where a name gives a salt, the structure may show the parent alone. Read-outs that look alike come from different tables or passages of the source. A value given as a limit tells only on which side of the number the result lay.

The target in assay [1] is T1, RAD52-ssDNA interaction (Homo sapiens, UniProt P43351).
T1 construct: made in house
T1 sequence (P43351 1-418): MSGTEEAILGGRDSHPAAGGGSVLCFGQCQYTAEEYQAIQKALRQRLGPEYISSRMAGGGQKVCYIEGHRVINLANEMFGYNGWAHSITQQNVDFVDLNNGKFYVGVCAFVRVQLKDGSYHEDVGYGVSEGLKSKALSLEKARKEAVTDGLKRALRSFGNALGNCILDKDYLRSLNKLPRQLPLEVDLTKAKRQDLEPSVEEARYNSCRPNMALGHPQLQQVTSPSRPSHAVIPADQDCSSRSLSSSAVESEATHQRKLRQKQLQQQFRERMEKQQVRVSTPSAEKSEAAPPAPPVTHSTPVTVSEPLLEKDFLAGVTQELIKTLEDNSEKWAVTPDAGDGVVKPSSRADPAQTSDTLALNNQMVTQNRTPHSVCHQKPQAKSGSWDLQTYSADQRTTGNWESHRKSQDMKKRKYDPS
In words: FRET-based ssDNA binding and wrapping assay (RAD52-Cy3-dT30-Cy5 complex). To be noted: for IC50 range for inhibition of ssDNA binding, in words / FRET value at saturation: 1 nM Cy3-dT30-Cy5, 8 nM RAD52; for FRET value at saturation: ssDNA. The method, then:
We titrated increasing amounts of each compound into a cuvette containing preformed stoichiometric RAD52-Cy3-dT30-Cy5 complexes (1 nM Cy3-dT30-Cy5 and 8 nM RAD52). […] At each concentration of the compound, the FRET signal was adjusted for the change in Cy3 and Cy5 fluorescence in the presence of the compound, but in the absence of protein.
FRET-based ssDNA binding, dsDNA binding, and annealing assays were carried out as previously described ([Grimme et al., 2010]; [Grimme and Spies, 2011]) using Cary Eclipse spectrofluorimeter (Varian) at 25°C in buffer containing 30 mM Tris-Acetate pH7.5, 1 mM DTT, and 0.1 mg/mL BSA. Cy3 dye was excited at 530 nm and its emission was monitored at 565 nm. Emission of Cy5 acceptor fluorophore excited through the energy transfer from Cy3 donor is monitored at 660 nm simultaneously with emission of Cy3 dye. Both the excitation and the emission slit widths were set to 10 nm.
All experiments were performed in triplicates, and the data are shown as averages and standard deviations for three independent measurements. To remove possible experimental artifacts associated with chromogenic or fluorogenic compounds, as well as with the compounds that may quench or enhance Cy3 or Cy5 fluorescence, we also performed control titrations whereby we titrated each compound into 1 nM Cy3-dT30-Cy5 in the absence of RAD52. For each compound concentration we subtracted the difference in the FRET signal in the presence and absence of the compound from the respective FRET signal in the presence of RAD52. The FRET signal corrected for the compound fluorescence was calculated using the equation: FRETapp=4.2∗ICy5/4.2∗ICy5+ 1.7∗ICy3
as previously described ([Grimme et al., 2010]; [Grimme and Spies, 2011]) and plotted as a function of compound concentration and fitted to the following inhibition model” FRET([small molecule])=FRET0−FRETmin/1+10^(LogIC50−Log([small molecule])∗HillSlope),
where FRET0 is the initial FRET value of the RAD52-ssDNA complex in the absence of the compound and FRETmin is the FRET value at complete inhibition. FRET values were calculated as an average of three or more independent annealing reactions plotted against the concentration of the compound. Inhibition of the RAD52-dsDNA interaction was assayed in a similar experiments, except the stoichiometric complexes containing 1 nM molecules of Cy3-Oligo28-Cy5 duplex DNA and 10 nM RAD52.

The target of assay [2] is T2, RAD52-mediated ssDNA annealing (Homo sapiens, UniProt P43351).
T2 construct: made in house
T2 sequence (P43351 1-418): T1 sequence (P43351 1-418)
Put plainly: FRET-based RAD52-mediated ssDNA annealing assay. It is filed as biochemical. The text has this:
To determine how the selected compounds affect the ssDNA annealing function of RAD52 we performed FRET-based annealing assays ([Grimme et al., 2010]; [Grimme and Spies, 2011]). These assays utilize two complementary single stranded 28-nucleotide-long substrates, which contain either Cy3 (T-28) or Cy5 (P-28) incorporated into the middle of the respective DNA strand. When the substrates are annealed by RAD52, the Cy3 and Cy5 dyes are separated by 3 base pairs and yield a high FRET signal (Figure 2—figure supplement 2). […] The annealing reactions were initiated by mixing two half reactions and observing the change in FRET over time in the presence of varying concentrations of small molecules. An increasing FRET value over time indicates the formation of the dsDNA duplex which brings the two dyes in close proximity (Figure 2—figure supplement 2). Fitting the annealing data to a double exponential allowed us to calculate and compare the final extent of annealing at varying concentrations of each compound compared to RAD52 alone. We plotted the final extent of annealing vs the concentration of the compound and calculated an IC50 of annealing inhibition. […] At the stoichiometric RAD52: dsDNA ratio, (1 nM dsDNA: 10 nM RAD52) the dsDNA is bent upon RAD52 binding, which allows us to distinguish the RAD52-bound and free dsDNA (Figure 2—figure supplement 1).
Annealing of complementary oligonucleotides by RAD52 was monitored under identical conditions as the binding assays described above. For each assay, the reaction master mixture containing 8 nM RAD52 protein in the presence and absence of the compounds at varying concentrations was prepared at room temperature and divided into two half reactions. Following baseline buffer and protein measurements, 0.5 nM of T-28 ssDNA substrate was added to the reaction cuvette and the signal was allowed to stabilize. The annealing reaction was initiated upon addition of the second half-reaction pre-incubated with 0.5 nM P-28 ssDNA substrate. The fluorescence of Cy3 and Cy5 were measured simultaneously over the reaction time course (500 s). FRETapp values were calculated as an average of three or more independent annealing reactions plotted against time (s). The average FRET values were fitted to a double exponential to calculate the final extent of annealing using Graphpad Prism4 software. The calculated annealing extent was plotted as a function of compound concentration and fitted to the same model as we used to determine IC50 values for the inhibition of DNA annealing.

Setting [3] is: 1 nM Cy3-dT30-Cy5, 8 nM RAD52, 25°C, read-out: IC50 (DNA binding), ssDNA.
[4] abbreviates: 8 nM RAD52, 0.5 nM T-28 and 0.5 nM P-28, read-out: IC50 (Annealing extent), ssDNA.
[5] abbreviates: read-out: IC50 (Annealing extent), ssDNA, 8 nM RAD52, 0.5 nM T-28 and 0.5 nM P-28.

Consider `C=C1c2cccc(O)c2C(=O)C2=C(O)[C@]3(O)C(=O)C(C(N)=O)=C(O)[C@@H](N(C)C)[C@@H]3[C@@H](O)[C@H]12` [Compound 3, Methacycline Hydrochloride], for which, in assay [1], the “IC50 range for inhibition of ssDNA binding, in words” value (“IC50 range for inhibition” below) was “micro-molar range” and the “FRET value at saturation” value came to 0.47 ± 0.01. The IC50 in assay [1] (setting [3]) was 2 ± 0.17 µM. Further, the IC50 in assay [2] (setting [4]) is 3.8 ± 0.2 µM.

In the case of `CN(C)[C@@H]1C(O)=C(C(=O)NCN2CCCC2)C(=O)[C@@]2(O)C(O)=C3C(=O)c4c(O)cccc4[C@@](C)(O)[C@H]3C[C@@H]12` [Compound 4, Rolitetracycline], in assay [1], the IC50 is 29 ± 8.2 µM; the “IC50 range for inhibition” value is “mid micro-molar range”; the “FRET value at saturation” value came to 0.56 ± 0.04. Further, the IC50 in assay [2] (setting [5]) is above 100 µM.

On to `O=C(O[C@@H]1Cc2c(O)cc(O)cc2O[C@@H]1c1ccc(O)c(O)c1)c1cc(O)c(O)c(O)c1` [Compound 5, (−)−Epicatechin gallate], for which, in assay [1], the “IC50 range for inhibition” value was “nano-molar range” and the “FRET value at saturation” value is 0.41 ± 0.004. In assay [1] (setting [3]), the IC50 stood at 0.255 ± 0.016 µM. Moreover, in assay [2] (setting [4]), the IC50 was 20 ± 0.7 µM.

For `Oc1cc(O)c2c(c1)O[C@H](c1ccc(O)c(O)c1)[C@H](O)C2` [Compound 7, (−)−Epicatechin], in assay [1], the “IC50 range for inhibition” value is given as “micro-molar range” and the “FRET value at saturation” value is 0.51 ± 0.01. For the same compound, the IC50 in assay [1] (setting [3]) amounted to 1.45 ± 0.11 µM. Moreover, the IC50 in assay [2] (setting [4]) was above 100 µM.

Take `NCCc1cc(O)c(O)cc1O` [Compound 14, Oxidopamine]: in assay [1], the IC50 was 0.779 ± 0.051 µM; the “IC50 range for inhibition” value is given as “nano-molar range”; the “FRET value at saturation” value is 0.50 ± 0.01. In addition, in assay [2] (setting [5]), the IC50 is above 100 µM.

Take `O=C1c2ccc(O)c(O)c2C(=O)c2c(O)ccc(O)c21` [Compound 15, Quinalizarin]: in assay [1], the “IC50 range for inhibition” value was “nano-molar range” and the “FRET value at saturation” value is reported as 0.51 ± 0.01. Besides, the IC50 in assay [1] (setting [3]) was 0.563 ± 0.04 µM. In assay [2] (setting [4]), the IC50 came to 5.6 ± 0.6 µM.

Turning to `COc1cc(N)c(Cl)cc1C(=O)NC1CCN(CCCOc2ccc(F)cc2)CC1OC` (centres unmarked) [Compound 16, Cisapride Monohydrate], the “FRET value at saturation” value in assay [1] was 0.50 ± 0.01.

`CC1(C)C(=O)C=C[C@@]2(C)C1=C(O)C(=O)[C@]1(C)[C@@H]2CC[C@@]2(C)[C@H](c3ccoc3)C[C@H]3O[C@]321` [Compound 17, Cedrelone]: the “IC50 range for inhibition” value in assay [1] is on record as “high micro-molar range”. Besides, the IC50 in assay [1] (setting [3]) is above 300 µM; in assay [2] (setting [4]) it was above 100 µM.

For `C[C@H]1[C@H](C)CC[C@]2(C(=O)O)CC[C@]3(C)C(=CC[C@@H]4[C@@]5(C)C[C@@H](O)[C@H](O)[C@@](C)(CO)[C@@H]5CC[C@]43C)[C@H]12` [Compound 18, Asiatic Acid], in assay [1], the “IC50 range for inhibition” value is on record as “high micro-molar range”. Further, the IC50 in assay [1] (setting [3]) is above 800 µM; in assay [2] (setting [4]), above 100 µM.

As for `O=c1c(O)c(-c2ccc(O)c(O)c2)oc2c(O)c(O)cc(O)c12` [Compound 19, Gossypetin], in assay [1], the IC50 turned out to be 0.913 ± 0.058 µM; the “IC50 range for inhibition” value was “nano-molar range”; the “FRET value at saturation” value is 0.49 ± 0.01. Moreover, inhibition in assay [2] was half-maximal at 6 ± 2.3 µM (IC50).

The IC50 is the midpoint of a concentration-inhibition curve.
